Among the data in patent US20210269434A1, “TRICYCLIC COMPOUNDS AS INHIBITORS OF KRAS” (Incyte Corporation, priority 2020, published 2021) are IC50 values, retold here.

In one assay the target is KRAS G12C (Homo sapiens, UniProt P01116, G12C). The assay can be described thus: GDP-GTP exchange assay (KRAS_G12C exchange). To be noted: bodipy-GDP loaded KRAS G12C 2.5 nM, SOS1 150 nM, GppNHp; 2 hours pre-incubation, 2 hours reaction; read-out: G12C_exchange. Type of assay: biochemical. How it is done:
Example A. GDP-GTP Exchange Assay
The inhibitor potency of the exemplified compounds was determined in a fluorescence based guanine nucleotide exchange assay, which measures the exchange of bodipy-GDP (fluorescently labeled GDP) for GppNHp (Non-hydrolyzable GTP analog) to generate the active state of KRAS in the presence of SOS1 (guanine nucleotide exchange factor). Inhibitors were serially diluted in DMSO and a volume of 0.1 μL was transferred to the wells of a black low volume 384-well plate. 5 μL/well volume of bodipy-loaded KRAS G12C diluted to 5 nM in assay buffer (25 mM Hepes pH 7.5, 50 mM NaCl, 10 mM MgCl2 and 0.01% Brij-35) was added to the plate and pre-incubated with inhibitor for 2 hours at ambient temperature. Appropriate controls (enzyme with no inhibitor or with a G12C inhibitor (AMG-510)) were included on the plate. The exchange was initiated by the addition of a 5 μL/well volume containing 1 mM GppNHp and 300 nM SOS1 in assay buffer. The 10 μL/well reaction concentration of the bodipy-loaded KRAS G12C, GppNHp, and SOS1 were 2.5 nM, 500 uM, and 150 nM, respectively. The reaction plates were incubated at ambient temperature for 2 hours, a time estimated for complete GDP-GTP exchange in the absence of inhibitor. For the KRAS G12D and G12V mutants, similar guanine nucleotide exchange assays were used with 2.5 nM as final concentration for the bodipy loaded KRAS proteins and with 4 hours and 3 hours incubation after adding GppNHp-SOS1 mixture for G12D and G12V respectively. A cyclic peptide described to selectively bind G12D mutant (Sakamoto et al., BBRC 484.3 (2017), 605-611) or internal compounds with confirmed binding were used as positive controls in the assay plates. Fluorescence intensities were measured on a PheraStar plate reader instrument (BMG Labtech) with excitation at 485 nm and emission at 520 nm.
Either GraphPad prism or XLfit was used to analyze the data. The IC50 values were derived by fitting the data to a four parameter logistic equation producing a sigmoidal dose-response curve with a variable Hill coefficient. Prism equation: Y=Bottom+(Top−Bottom)/(1+10^((Log lC50−X)*Hill slope)); XLfit equation: Y=(A+((B−A)/(1+((X/C)^D)))) where X is the logarithm of inhibitor concentration and Y is the response.

Assay [1] has as its system MIA PaCa-2 (KRAS G12C) cells. Put plainly: Cellular pERK HTRF assay (KRAS_G12C pERK). Type of assay: cell-based, human. As to conditions: Homo sapiens, MIA PaCa-2, 4 hours incubation, read-out: G12C_pERK. How it is done:
Example C: Cellular pERK HTRF Assay
MIA PaCa-2 (KRAS G12C; ATCC® CRL-1420), A427 (KRAS G12D; ATCC® HTB53), HPAF-II (KRAS G12D; ATCC® CRL-1997) and NCI-H838 (KRAS WT; ATCC® CRL-5844) cells are purchased from ATCC and maintained in RPMI 1640 media supplemented with 10% FBS (Gibco/Life Technologies). The cells are plated at 5000 cells per well (8 uL) into Greiner 384-well low volume, flat-bottom, tissue culture treated white plates and incubated overnight at 37° C., 5% CO2. The next morning, test compound stock solutions are diluted in media at 3× the final concentration, and 4 uL are added to the cells. The plate is mixed by gentle rotation for 30 seconds (250 rpm) at room temperature. The cells are incubated with the KRAS G12C and G12D compounds for 4 hours or 2 hours respectively at 37° C., 5% CO2.
4 uL of 4× lysis buffer with blocking reagent (1:25) (Cisbio) are added to each well and plates are rotated gently (300 rpm) for 30 minutes at room temperature. 4 uL per well of Cisbio anti Phospho-ERK 1/2 d2 is mixed with anti Phospho-ERK 1/2 Cryptate (1:1) are added to each well, mixed by rotation and incubated overnight in the dark at room temperature. Plates are read on the Pherastar plate reader at 665 nm and 620 nm wavelengths. IC50 determination is performed by fitting the curve of inhibitor percent inhibition versus the log of the inhibitor concentration using the GraphPad Prism 7 software.

Sequence of KRAS G12C (P01116 1-188 isoform P01116-2 G12C): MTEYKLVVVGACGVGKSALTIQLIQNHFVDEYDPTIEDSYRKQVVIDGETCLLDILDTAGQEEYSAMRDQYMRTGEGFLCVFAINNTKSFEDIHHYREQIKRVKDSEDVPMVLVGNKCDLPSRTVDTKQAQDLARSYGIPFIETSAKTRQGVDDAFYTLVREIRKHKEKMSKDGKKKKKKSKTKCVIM

In the case of `C=CC(=O)N1CCCC(n2cnc3c(OC[C@@H]4CCCN4C)nc4c(F)c(-c5cc(O)cc6ccccc56)c(Cl)cc4c32)C1` (mixture of isomers) [Example 5, 1-(3-(8-chloro-6-fluoro-7-(3-hydroxynaphthalen-1-yl)-4-(((S)-1-methylpyrrolidin-2-yl)methoxy)-1H-imidazo[4,5-c]quinolin-1-yl)piperidin-1-yl)prop-2-en-1-one], the results for the IC50 (at KRAS G12C; in assay [1]) were no more than 100 nM and 1000 to 5000 nM, respectively.

For `C=CC(=O)N1CCC(n2cnc3c(OC[C@@H]4CCCN4C)nc4c(F)c(-c5cc(O)cc6ccccc56)c(Cl)cc4c32)C1` (mixture of isomers) [Example 7, 1-(3-(8-chloro-6-fluoro-7-(3-hydroxynaphthalen-1-yl)-4-(((S)-1-methyl-pyrrolidin-2-yl)methoxy)-1H-imidazo[4,5-c]quinolin-1-yl)pyrrolidin-1-yl)prop-2-en-1-one], the IC50 (at KRAS G12C; in assay [1]) was no more than 100 nM each time.

For the molecule `C=CC(=O)N1CCC(n2cnc3c(OC[C@@H]4CCCN4C)nc4c(F)c(-c5cccc6ccccc56)c(Cl)cc4c32)CC1CC#N` (mixture of isomers) [Example 38, 2-(1-acryloyl-4-(8-chloro-6-fluoro-4-(((S)-1-methylpyrrolidin-2-yl)methoxy)-7-(naphthalen-1-yl)-1H-imidazo[4,5-c]quinolin-1-yl)piperidin-2-yl)acetonitrile], the IC50 (on KRAS G12C; in assay [1]) was no more than 100 nM in each case.

Take `C=CC(=O)N1CCC(n2cnc3c(OC[C@@H]4CCCN4C)nc4c(F)c(-c5cccc(Cl)c5C)c(Cl)cc4c32)CC1CC#N` (mixture of isomers) [Example 41, 2-(1-acryloyl-4-(8-chloro-7-(3-chloro-2-methylphenyl)-6-fluoro-4-(((S)-1-methylpyrrolidin-2-yl)methoxy)-1H-imidazo[4,5-c]quinolin-1-yl)piperidin-2-yl)acetonitrile]: the IC50 (at KRAS G12C; in assay [1]) was no more than 100 nM in each case.

In the case of `C=CC(=O)N1CCC(n2cnc3c(OC[C@@H]4CCCN4C)nc4c(F)c(-c5cccc(F)c5C)c(Cl)cc4c32)CC1CC#N` (mixture of isomers) [Example 42, 2-(1-acryloyl-4-(8-chloro-6-fluoro-7-(3-fluoro-2-methylphenyl)-4-(((S)-1-methylpyrrolidin-2-yl)methoxy)-1H-imidazo[4,5-c]quinolin-1-yl)piperidin-2-yl)acetonitrile], the IC50 (at KRAS G12C; in assay [1]) was no more than 100 nM throughout.

For the molecule `C=CC(=O)N1CCC(n2cnc3c(OC[C@@H]4CCCN4C)nc4c(F)c(-c5cccc(C)c5C)c(Cl)cc4c32)CC1CC#N` (mixture of isomers) [Example 43, 2-(1-acryloyl-4-(8-chloro-7-(2,3-dimethylphenyl)-6-fluoro-4-(((S)-1-methyl-pyrrolidin-2-yl)methoxy)-1H-imidazo[4,5-c]quinolin-1-yl)piperidin-2-yl)acetonitrile], the IC50 (on KRAS G12C; in assay [1]) was no more than 100 nM in each case.

For `C=CC(=O)N1CCC(n2cnc3c(OC[C@@H]4CCCN4C)nc4c(F)c(-c5cccc6c5CCC6)c(Cl)cc4c32)CC1CC#N` (mixture of isomers) [Example 44, 2-(1-acryloyl-4-(8-chloro-7-(2,3-dihydro-1H-inden-4-yl)-6-fluoro-4-(((S)-1-methylpyrrolidin-2-yl)methoxy)-1H-imidazo[4,5-c]quinolin-1-yl)piperidin-2-yl)acetonitrile], the IC50 (on KRAS G12C; in assay [1]) was no more than 100 nM each time.

Take `C=CC(=O)N1C[C@H](C)[C@@H](n2cnc3c(N4CC(N(C)C)C4)nc4c(F)c(-c5cc(O)cc6ccccc56)c(Cl)cc4c32)C1` (racemic) [Example 31a, 1-((trans)-3-(8-chloro-4-(3-(dimethylamino)azetidin-1-yl)-6-fluoro-7-(3-hydroxynaphthalen-1-yl)-1H-imidazo[4,5-c]quinolin-1-yl)-4-methylpyrrolidin-1-yl)prop-2-en-1-one]: the IC50 (on KRAS G12C; in assay [1]) was no more than 100 nM throughout.

Turning to `C=CC(=O)N1CCC(n2cnc3c(=O)n(C)c4c(F)c(-c5cc(O)cc6ccccc56)c(Cl)cc4c32)C1` (racemic) [Example 33, 1-(1-acryloylpyrrolidin-3-yl)-8-chloro-6-fluoro-7-(3-hydroxynaphthalen-1-yl)-5-methyl-1,5-dihydro-4H-imidazo[4,5-c]quinolin-4-one], the values for the IC50 (at KRAS G12C; in assay [1]) were 100 to 1000 nM and 1000 to 5000 nM, respectively.

In the case of `C=CC(=O)N1C[C@H](OC)[C@@H](n2cnc3c(N4CC(N(C)C)C4)nc4c(F)c(-c5cc(O)cc6ccccc56)c(Cl)cc4c32)C1` (relative stereo) [Example 30b, 1-((trans)-3-(8-chloro-4-(3-(dimethylamino)azetidin-1-yl)-6-fluoro-7-(3-hydroxynaphthalen-1-yl)-1H-imidazo[4,5-c]quinolin-1-yl)-4-methoxypyrrolidin-1-yl)prop-2-en-1-one], the IC50 (on KRAS G12C; in assay [1]) was no more than 100 nM in each case.

Turning to `C=CC(=O)N1CCC(n2cnc3c(OC[C@@H]4CCCN4C)nc4c(F)c(-c5cc(O)cc6ccccc56)c(Cl)cc4c32)CC1` (single isomer, unassigned) [Example 1a], the IC50 at KRAS G12C is no more than 100 nM; in assay [1], 100 to 1000 nM.

For `C=CC(=O)N1CCC(n2cnc3c(OC[C@@H]4CCCN4C)nc4c(F)c(-c5c(O)cccc5F)c(Cl)cc4c32)CC1` (single isomer, unassigned) [Example 2a], the results for the IC50 (on KRAS G12C; in assay [1]) were 100 to 1000 nM and 1000 to 5000 nM, respectively.

`C=CC(=O)N1CCC(n2cnc3c(OC[C@@H]4CCCN4C)nc4c(F)c(-c5cccc(O)c5F)c(Cl)cc4c32)CC1` (single isomer, unassigned) [Example 3a]: at KRAS G12C, the IC50 was in the range of 1000 to 5000 nM.

Take `C=CC(=O)N1CCC(n2cnc3c(OC[C@@H]4CCCN4C)nc4c(F)c(-c5c(C)ccc6[nH]ncc56)c(Cl)cc4c32)CC1` (single isomer, unassigned) [Example 4a]: the IC50 was no more than 100 nM on KRAS G12C and 100 to 1000 nM in assay [1].

`C=CC(=O)N1CC(n2cnc3c(OC[C@@H]4CCCN4C)nc4c(F)c(-c5cc(O)cc6ccccc56)c(Cl)cc4c32)C1` (single isomer, unassigned) [Example 6a]: the IC50 was no more than 100 nM at KRAS G12C and 100 to 1000 nM in assay [1].

`C=CC(=O)N1CCC(n2nnc3c(OC[C@@H]4CCCN4C)nc4c(F)c(-c5cc(O)cc6ccccc56)c(Cl)cc4c32)CC1` (single isomer, unassigned) [Example 14a]: the IC50 (at KRAS G12C; in assay [1]) was no more than 100 nM in each case.

As to `C=CC(=O)N1CCC(n2cnc3c(OCc4ccnn4C)nc4c(F)c(-c5cc(O)cc6ccccc56)c(Cl)cc4c32)CC1` [Example 8, 1-(4-(8-chloro-6-fluoro-7-(3-hydroxynaphthalen-1-yl)-4-((1-methyl-1H-pyrazol-5-yl)methoxy)-1H-imidazo[4,5-c]quinolin-1-yl)piperidin-1-yl)prop-2-en-1-one], the IC50 on KRAS G12C was 100 to 1000 nM.

For the molecule `C=CC(=O)N1CC(n2c(=O)[nH]c3c(=O)n(-c4ccccc4)c4nc(-c5cc(O)cc6ccccc56)c(F)cc4c32)C1` [Example 28, 1-(1-acryloylazetidin-3-yl)-8-fluoro-7-(3-hydroxynaphthalen-1-yl)-5-phenyl-3,5-dihydro-1H-imidazo[4,5-c][1,8]naphthyridine-2,4-dione], at KRAS G12C, the IC50 was in the range of 100 to 1000 nM.
